This experiment has as its system PMDS iPS-derived neurons. Put plainly: sEPSC recordings from iPS-derived PMDS neurons. The class given is cell-based, human. An excerpt:
Primary human dermal fibroblasts from neonatal (Invitrogen, Carlsbad, Calif.) and adults (University of Milano, Dr. Sala) were taken for reprogramming using the CytoTune-iPS reprogramming kit (Life Technologies, Carlsbad, Calif.) according to the standard protocol. Colonies with hallmark of pluripotent morphology were readily visible between days 17 and 20 after transduction. These were picked and subcloned multiple times on plates coated with Matrigel (BD Biosciences, San Jose, Calif.) in mTeSR medium until Sendai virus RNA could no longer be detected and the morphology looked stable. […] Karyotype analyses was performed by full-genome SNP analyses by Life&Brain Gmbh (Bonn). […] Neuronal precursors were differentiated from iPS cells by using a modified dual SMAD inhibition as described earlier (Chambers et al., 2009; Pecho-Vrieseling et al., 2014). Briefly, […] undifferentiated hiPSC were seeded in an ULA 96-well in 0.1 ml neural induction medium (20% knockout-serum replacement (Invitrogen), 0.1 mM MEM non-essential amino acids (Invitrogen), 0.1 mM 2-mercaptoethanol (Invitrogen), 75% […] (Invitrogen Gibco); Pen/Strep, 10 ng ml bhFGF (1:1,000, Invitrogen), 10 μM SB 431542 (1:1,000) (Tocris, Bristol, UK) and 1 μM LDN 193189 (1:10,000) (Stemgent) with 10 μM Rock inhibitor to prevent apoptosis (Calbiochem, Darmstadt, Germany). Two days later 0.1 ml of fresh induction media was added to the old one. The next day 30 embryoid bodies (EB) were transferred to a 35 mm matrigel dish with induction media. At day 10 EB's were cleaned to have only neuronal rosettes left. […]
Whole cell patch-clamp recordings were excluded if the access resistance exceeded 13 MΩ and changed more than 20% during the recordings. Data were recorded with a MultiClamp 700B (Molecular Devices) amplifier, filtered at 0.2 kHz, and digitised at 10 kHz. Data were acquired and analysed with Clampex 10.0, Clampfit 10.0 (Molecular Devices) and the Mini Analysis Program (Synaptosoft, Decatur, Ga.). […]

Setting [1] is: PMDS neurons, eight weeks in vitro, overnight treatment.

In the case of `CCOC(=O)C1=C(N)Oc2ccc(Cl)cc2C1C(C#N)C(=O)OCC` (stereo not drawn) [SC79], the “frequency of spontaneous EPSCs (sEPSCs)” value runs as follows: under setting [1], “completely rescued this impairment”; (neurons from second PMDS patient (PMDS-2)) “restorative effect of SC79 was also observed”. For `CCN1/C(=C/C(C)=O)Sc2ccc(OC)cc21` [TG003, (Z)-1-(3-ethyl-5-methoxy-2,3-dihydrobenzothiazol-2-ylidene)propan-2-one], the “frequency of spontaneous EPSCs (sEPSCs)” value under setting [1] is “completely rescued this impairment”.

These data come from US20180296537A1, “METHODS AND COMPOSITIONS FOR DIAGNOSING, TREATING, AND MONITORING TREATMENT OF SHANK3 DEFICIENCY ASSOCIATED DISORDERS” (Novartis AG, priority 2015, published 2018).
